Results taken from PubChem BioAssay (NCI).
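GI50: concentration for 50% inhibition of growth. TGI: concentration producing complete growth inhibition.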

Tests used:
Test in all cases: NCI-60 cell line screen, 384-well format
CCRF-CEM leukemia = test system: CCRF-CEM leukemia
HL-60(TB) leukemia = test system: HL-60(TB) leukemia
A549 NSCLC = test system: A549 NSCLC
SR leukemia = test system: SR leukemia
HCT-15 colon = test system: HCT-15 colon
SF-539 CNS = test system: SF-539 CNS
SK-MEL-5 melanoma = test system: SK-MEL-5 melanoma
NCI-H460 NSCLC = test system: NCI-H460 NSCLC
SK-OV-3 ovarian = test system: SK-OV-3 ovarian
HS 578T breast = test system: HS 578T breast
NCI-H522 lung = test system: NCI-H522 lung
HT29 colon = test system: HT29 colon
NCI-H226 lung = test system: NCI-H226 lung
EKVX NSCLC = test system: EKVX NSCLC
SF-295 CNS = test system: SF-295 CNS
TK-10 renal = test system: TK-10 renal
SF-268 CNS = test system: SF-268 CNS
HCT-116 colon = test system: HCT-116 colon
COLO 205 colon = test system: COLO 205 colon
RXF 393 renal = test system: RXF 393 renal
HCC-2998 colon = test system: HCC-2998 colon
786-0 renal = test system: 786-0 renal
T-47D breast = test system: T-47D breast
UACC-257 melanoma = test system: UACC-257 melanoma
BT-549 breast = test system: BT-549 breast
K-562 leukemia = test system: K-562 leukemia
U251 glioblastoma = test system: U251 glioblastoma
RPMI-8226 leukemia = test system: RPMI-8226 leukemia
UACC-62 melanoma = test system: UACC-62 melanoma
UO-31 renal = test system: UO-31 renal
SNB-19 CNS = test system: SNB-19 CNS
HOP-62 NSCLC = test system: HOP-62 NSCLC
IGROV1 ovarian = test system: IGROV1 ovarian
SW-620 colon = test system: SW-620 colon
OVCAR-3 ovarian = test system: OVCAR-3 ovarian
DU-145 prostate = test system: DU-145 prostate
SNB-75 CNS = test system: SNB-75 CNS
SK-MEL-2 melanoma = test system: SK-MEL-2 melanoma
HOP-92 NSCLC = test system: HOP-92 NSCLC
MCF7 breast = test system: MCF7 breast
OVCAR-4 ovarian = test system: OVCAR-4 ovarian
ACHN renal = test system: ACHN renal
OVCAR-5 ovarian = test system: OVCAR-5 ovarian
CAKI-1 renal = test system: CAKI-1 renal
M14 melanoma = test system: M14 melanoma
NCI-H23 lung = test system: NCI-H23 lung
PC-3 prostate = test system: PC-3 prostate
SK-MEL-28 melanoma = test system: SK-MEL-28 melanoma
MDA-MB-435 melanoma = test system: MDA-MB-435 melanoma
NCI-H322M lung = test system: NCI-H322M lung
NCI/ADR-RES ovarian = test system: NCI/ADR-RES ovarian
A498 renal = test system: A498 renal
MALME-3M melanoma = test system: MALME-3M melanoma
MDA-MB-231 breast = test system: MDA-MB-231 breast
MDA-MB-468 breast = test system: MDA-MB-468 breast
MOLT-4 leukemia = test system: MOLT-4 leukemia
KM12 colon = test system: KM12 colon

For NC(=O)NO, which GI50 (CCRF-CEM leukemia) is on record?
The GI50 was 76.3 µM.

What about the GI50 (HL-60(TB) leukemia) of the same compound?
Its GI50 is 81.9 µM.

CS(=O)(=O)c1ccc(-c2cnc(N)c(C(=O)Nc3ccccc3)n2)cc1 was tested. Which GI50 (A549 NSCLC) did it give?
The GI50 was 5.47 µM.

What about the TGI (A549 NSCLC) of the same compound?
The TGI was > 100 µM.

What about the GI50 (SR leukemia) of the same compound?
Its GI50 is 0.603 µM.

What about the TGI (SR leukemia) of the same compound?
Its TGI is 4.57 µM.

And the GI50 (HCT-15 colon)?
Its GI50 is 3.32 µM.

And the TGI (HCT-15 colon)?
The TGI was > 100 µM.

What about the GI50 (SF-539 CNS) of the same compound?
The GI50 was 5.27 µM.

And the TGI (SF-539 CNS)?
The TGI was > 100 µM.

What about the GI50 (SK-MEL-5 melanoma) of the same compound?
Its GI50 is 16.1 µM.

And the TGI (SK-MEL-5 melanoma)?
The TGI was > 100 µM.

What about the GI50 (NCI-H460 NSCLC) of the same compound?
The GI50 was 3.73 µM.

What about the TGI (NCI-H460 NSCLC) of the same compound?
Its TGI is > 100 µM.

And the GI50 (SK-OV-3 ovarian)?
Its GI50 is 3.68 µM.

What about the TGI (SK-OV-3 ovarian) of the same compound?
Its TGI is 40 µM.

What about the GI50 (HS 578T breast) of the same compound?
The GI50 was 4.54 µM.

What about the TGI (HS 578T breast) of the same compound?
The TGI was 49.9 µM.

And the GI50 (NCI-H522 lung)?
The GI50 was 5.61 µM.

And the TGI (NCI-H522 lung)?
Its TGI is > 100 µM.

And the GI50 (HT29 colon)?
The GI50 was 3.76 µM.

What about the TGI (HT29 colon) of the same compound?
Its TGI is > 100 µM.

And the GI50 (NCI-H226 lung)?
Its GI50 is 46.8 µM.

What about the TGI (NCI-H226 lung) of the same compound?
The TGI was > 100 µM.

And the GI50 (EKVX NSCLC)?
Its GI50 is > 100 µM.

What about the TGI (EKVX NSCLC) of the same compound?
Its TGI is > 100 µM.

And the GI50 (SF-295 CNS)?
The GI50 was 7.75 µM.

What about the TGI (SF-295 CNS) of the same compound?
The TGI was > 100 µM.

And the GI50 (TK-10 renal)?
The GI50 was 2.75 µM.

What about the TGI (TK-10 renal) of the same compound?
The TGI was 18.7 µM.

And the GI50 (SF-268 CNS)?
The GI50 was > 100 µM.

What about the TGI (SF-268 CNS) of the same compound?
The TGI was > 100 µM.

And the GI50 (HCT-116 colon)?
Its GI50 is > 100 µM.

What about the TGI (HCT-116 colon) of the same compound?
Its TGI is > 100 µM.

And the GI50 (COLO 205 colon)?
The GI50 was 29.5 µM.

And the TGI (COLO 205 colon)?
Its TGI is > 100 µM.

And the GI50 (CCRF-CEM leukemia)?
Its GI50 is 1.51 µM.

And the TGI (CCRF-CEM leukemia)?
Its TGI is 3.01 µM.

And the GI50 (RXF 393 renal)?
Its GI50 is 6.56 µM.

What about the TGI (RXF 393 renal) of the same compound?
Its TGI is 43.4 µM.

And the GI50 (HCC-2998 colon)?
The GI50 was 0.543 µM.

What about the TGI (HCC-2998 colon) of the same compound?
The TGI was 9.37 µM.

And the GI50 ([…]-0 renal)?
The GI50 was 3.11 µM.

And the TGI (786-0 renal)?
The TGI was 65.7 µM.

What about the GI50 (T-47D breast) of the same compound?
Its GI50 is > 100 µM.

What about the TGI (T-47D breast) of the same compound?
The TGI was > 100 µM.

What about the GI50 (UACC-257 melanoma) of the same compound?
The GI50 was > 100 µM.

What about the TGI (UACC-257 melanoma) of the same compound?
Its TGI is > 100 µM.

And the GI50 (BT-549 breast)?
Its GI50 is 2.6 µM.

And the TGI (BT-549 breast)?
Its TGI is 11.5 µM.

And the GI50 (K-562 leukemia)?
Its GI50 is 4.62 µM.

And the TGI (K-562 leukemia)?
The TGI was > 100 µM.

And the GI50 (U251 glioblastoma)?
The GI50 was 6.52 µM.

What about the TGI (U251 glioblastoma) of the same compound?
Its TGI is > 100 µM.

And the GI50 (RPMI-8226 leukemia)?
The GI50 was 3.12 µM.

What about the TGI (RPMI-8226 leukemia) of the same compound?
Its TGI is > 100 µM.

And the GI50 (UACC-62 melanoma)?
Its GI50 is 18.9 µM.

And the TGI (UACC-62 melanoma)?
Its TGI is > 100 µM.

And the GI50 (UO-31 renal)?
The GI50 was 6.65 µM.

What about the TGI (UO-31 renal) of the same compound?
Its TGI is 22.1 µM.

What about the GI50 (SNB-19 CNS) of the same compound?
Its GI50 is 28.2 µM.

And the TGI (SNB-19 CNS)?
The TGI was > 100 µM.

What about the GI50 (HOP-62 NSCLC) of the same compound?
Its GI50 is 7.72 µM.

What about the TGI (HOP-62 NSCLC) of the same compound?
The TGI was > 100 µM.

What about the GI50 (IGROV1 ovarian) of the same compound?
The GI50 was 2.9 µM.

What about the TGI (IGROV1 ovarian) of the same compound?
Its TGI is > 100 µM.

And the GI50 (SW-620 colon)?
Its GI50 is > 100 µM.

What about the TGI (SW-620 colon) of the same compound?
Its TGI is > 100 µM.

What about the GI50 (OVCAR-3 ovarian) of the same compound?
The GI50 was 12.1 µM.

And the TGI (OVCAR-3 ovarian)?
Its TGI is > 100 µM.

What about the GI50 (DU-145 prostate) of the same compound?
The GI50 was 4.53 µM.

What about the TGI (DU-145 prostate) of the same compound?
The TGI was > 100 µM.

What about the GI50 (SNB-75 CNS) of the same compound?
The GI50 was 16.6 µM.

And the TGI (SNB-75 CNS)?
Its TGI is > 100 µM.

What about the GI50 (SK-MEL-2 melanoma) of the same compound?
Its GI50 is 5.35 µM.

And the TGI (SK-MEL-2 melanoma)?
Its TGI is 13.2 µM.

And the GI50 (HOP-92 NSCLC)?
The GI50 was 4.58 µM.

What about the TGI (HOP-92 NSCLC) of the same compound?
Its TGI is > 100 µM.

What about the GI50 (MCF7 breast) of the same compound?
The GI50 was 2.78 µM.

What about the TGI (MCF7 breast) of the same compound?
The TGI was > 100 µM.

And the GI50 (OVCAR-4 ovarian)?
Its GI50 is 11.9 µM.

And the TGI (OVCAR-4 ovarian)?
The TGI was 93 µM.

And the GI50 (ACHN renal)?
The GI50 was 3.02 µM.

And the TGI (ACHN renal)?
The TGI was 16.1 µM.

What about the GI50 (OVCAR-5 ovarian) of the same compound?
Its GI50 is 33.6 µM.

And the TGI (OVCAR-5 ovarian)?
Its TGI is > 100 µM.

What about the GI50 (CAKI-1 renal) of the same compound?
Its GI50 is 5.25 µM.

What about the TGI (CAKI-1 renal) of the same compound?
The TGI was 18.4 µM.

And the GI50 (M14 melanoma)?
Its GI50 is 5.68 µM.

And the TGI (M14 melanoma)?
The TGI was > 100 µM.

What about the GI50 (NCI-H23 lung) of the same compound?
The GI50 was 3.02 µM.

What about the TGI (NCI-H23 lung) of the same compound?
Its TGI is 58.7 µM.

And the GI50 (PC-3 prostate)?
The GI50 was 15 µM.

What about the TGI (PC-3 prostate) of the same compound?
Its TGI is > 100 µM.

And the GI50 (SK-MEL-28 melanoma)?
Its GI50 is > 100 µM.

And the TGI (SK-MEL-28 melanoma)?
The TGI was > 100 µM.

And the GI50 (HL-60(TB) leukemia)?
Its GI50 is 3.34 µM.

And the TGI (HL-60(TB) leukemia)?
Its TGI is 9.07 µM.

And the GI50 (MDA-MB-435 melanoma)?
The GI50 was > 100 µM.

And the TGI (MDA-MB-435 melanoma)?
Its TGI is > 100 µM.

What about the GI50 (NCI-H322M lung) of the same compound?
The GI50 was 14.9 µM.

And the TGI (NCI-H322M lung)?
The TGI was > 100 µM.

And the GI50 (NCI/ADR-RES ovarian)?
Its GI50 is > 100 µM.

What about the TGI (NCI/ADR-RES ovarian) of the same compound?
Its TGI is > 100 µM.

And the GI50 (A498 renal)?
Its GI50 is 2.78 µM.

And the TGI (A498 renal)?
Its TGI is 28.6 µM.

And the GI50 (MALME-3M melanoma)?
Its GI50 is 37.2 µM.

What about the TGI (MALME-3M melanoma) of the same compound?
The TGI was > 100 µM.

And the GI50 (MDA-MB-231 breast)?
Its GI50 is 62.3 µM.

And the TGI (MDA-MB-231 breast)?
The TGI was > 100 µM.

What about the GI50 (MDA-MB-468 breast) of the same compound?
The GI50 was 2.6 µM.

What about the TGI (MDA-MB-468 breast) of the same compound?
Its TGI is > 100 µM.

What about the GI50 (MOLT-4 leukemia) of the same compound?
The GI50 was 1.46 µM.

What about the TGI (MOLT-4 leukemia) of the same compound?
The TGI was 2.81 µM.

And the GI50 (KM12 colon)?
The GI50 was 40 µM.

And the TGI (KM12 colon)?
Its TGI is > 100 µM.
